# In US12011445B2, “Prevention of pancreatic cell degeneration” (Melior Pharmaceuticals I, Inc., priority 2010, dated 2024):
# “Also recorded” adds a separate entry of the source.
# Tests used:
# [1] = Oral glucose tolerance test; assay type: in vivo, mice; settings: for blood glucose levels at all time points after administration: P<0.05
# Description: Glucose was formulated in water at a concentration of 150 mg/ml and dosed at a volume of 10 ml/kg to produce a dose of 1.5 g/kg. Glucose was measured using the Ascensia II Elite XL glucose monitor ([…]). Measure glucose by taking a small (2 mm) section off the tip of the tail, bleed onto glucose test strip and measure. Data for each time point analyzed by ANOVA and post-hoc Tukey's test. A p value of less then 0.05 was used to indicate statistical significance. […]
# In study 1, mice were dosed with Compound 102 and glucose as follows:
# In study 2, mice were dosed with Compound 102 and glucose as follows.
# Study 3 tested Compound 102 and was conducted as follows: […]
# [2] = tested on: Db/Db mice; assay: Blood glucose and serum insulin levels in db/db mice, 56 days; assay type: in vivo
# Description: Blood glucose levels were measured once per week and serum insulin levels measured at the beginning and at the end of the study.
# [3] = tested on: leptin; assay: Leptin levels in Western diet treated animals (ELISA); assay type: in vivo, mice; settings: animals fed a western diet
# Description: Blood from mice that were on western diet (Compound 102) were analyzed for leptin levels. Mice were bled by retroorbital eyebleed on days 7, 14, 21 and 28 after the initiation of the study. On day of REB mice were dosed once with full dose 1 hr prior to bleed. Leptin levels were determined by ELISA (R&D Systems) as per directions. Data are expressed as the average±SEM. Data were averaged and analyzed by ANOVA followed by a post-hoc Tukey's test with a p value of less then 0.05 indicating a statistical difference.
# [4] = tested on: pancreatic β-cells; assay: Pancreatic β-cell degeneration in db/db mice (insulin antibody staining of pancreas); assay type: in vivo
# Description: Db/db mice were administered Compound 102 (100 mg/kg) for 60 days. At the end of the treatment period, pancreases were removed, post-fixed, sectioned and stained with insulin antibody to visualize pancreatic β-cells. Vehicle treated db/db mice expressed dramatically less insulin staining than lean control mice.
# [5] = tested on: Db/Db mice; assay: In vivo Db/Db mouse study; settings: for acute blood glucose response: upon study initiation and on weekly blood glucose testing
# Description: Db/Db and Db/lean mice were obtained from Harlan at 6 weeks of age. Mice were housed 3 per cage and fed ad libitum normal rodent chow. Mice were kept on a 12 hr Light:dark cycle.
# The study was initiated when mice reached an age of 8 weeks and their baseline blood glucose levels were greater than 200 mg/dl. Compound 102 was formulated in PBS: 2N HCl (99:1) at concentrations of 0.5, 1.5 and 5 mg/ml. Mice were dosed at volumes of 10 ml/kg to produce doses of 5, 15 and 50 mg/kg/dose. Mice were dosed twice per day at an 8 hr interval (8 am and 4 pm) during the light cycle.
# For the acute blood glucose measurements, blood glucose levels were measured after the animals received their first dose of Compound 102. Blood glucose levels were measured two hours after this initial injection.
# Mice were administered vehicle or drug (i.e., Compound 102) (5, 15, and 50 mg/kg) twice per day (bid) for the 28 days. Mouse weight and food intake were monitored daily. Food intake is reported as food intake (grams) per mouse per 24 hr period.
# [6] = tested on: Zucker rats; assay: In vivo Zucker rat study (oral glucose challenge); settings: 30 mg/kg ip; glucose 1.5 g/kg; 30 and 270 minutes after administration
# Description: Zucker rats and corresponding lean rats were supplied by Harlan. Rats were fed a normal diet, ad libitum, and kept on a 12 hr light/dark cycle. Rats were housed 3 per cage. At 12 weeks of age, Zucker rats were administered Compound 102 at a concentration of 30 mg/kg (ip). Blood glucose levels were measured 30 minutes after administration. Forty-five minutes after drug administration, animals were administered a glucose solution (1.5 g/kg) by oral gavage. Blood glucose levels were measured every 30 minutes after gavage for 4.5 hrs. There were 3 groups with 3 animals per group: 1) 3 Zucker leans (no drug; no glucose treatment); 2) Zucker vehicle treated group (glucose challenged and 3) Zucker Compound 102 treatment (30 mg/kg); glucose challenged.
# [7] = Western Diet study (weight, food intake, fat pads); assay type: in vivo, Male CD1/ICR mice
# Text: Male CD1/ICR mice were obtained from Harlan. The study was started when mice were 8 weeks of age. Prior to initiation of the study mice fasted for 24 hrs. Mice were fed “Western Diet” that was designed to approximate the “typical” human diet of North America and Europe (Research Diets; New Brunswick, N.J.; Western Diet composition). The Western Diet contained greater then 5 times more fat then normal chow. [table] Mice were weighed daily beginning from the start of the 24 hr fasting period. Food intake was monitored continuously. Mice were bled by retroorbital eyebleed on days 7, 14, 21 and 28 after the initiation of the study. On day of REB mice were dosed 1× with full dose 1 hr prior to bleed. Fat pads were dissected at the end of the study (day 31) weighed and frozen. The following fat pads were dissected: brown, inguinal, axial, mesenteric, renal and epidydimal. Data were averaged and analyzed by ANOVA followed by a post-hoc Tukey's test with a p value of less then 0.05 indicating a statistical difference.
# [8] = study 1, single administration, 30 mg/kg
# [9] = chronic treatment, histology, vs untreated controls, FIG. 2
# [10] = IP, twice/day, four weeks, 5, 15 and 50 mg/kg
# [11] = Western diet, fat pads dissected day 31
compound,measurement,setting,value
Cc1cccc(Oc2cnc(=O)[nH]c2)c1 [Compound 102],blood glucose levels produced by oral glucose administration,[1]; [8],significantly attenuated
same,normal blood glucose levels (pre-glucose loading),[1]; [8],significantly decreased
same,time after drug administration at which significance was lost,[1]; [8],90 min
same,effect on blood glucose levels,"[1]; study 2, increased dosing",more dramatic effect
same,serum insulin levels,"[2]; 30 mg/kg daily for 56 days, beginning vs end of study, FIG. 1",significantly slowed the loss; also recorded: prevention of the loss of serum insulin levels
same,blood glucose levels,"[2]; 30 mg/kg daily for 56 days, measured once per week, FIG. 1",attenuated the progressive rise; also recorded: decrease in blood glucose
same,extent of serum insulin lowering associated with pancreatic β-cell loss,"[2]; db/db mice, compared among Compound 102, vehicle and rosiglitazone",do not exhibit the extent of serum insulin lowering
same,blood leptin levels,[3],reduced leptin levels to those fed a normal diet
same,insulin staining of pancreas sections,[4]; 100 mg/kg for 60 days,significantly higher levels of insulin staining than vehicle treated mice
same,islet insulin content,[4]; [9],increased insulin content
same,islet structure,[4]; [9],better preserved islet structure
same,pancreatic β-cell degeneration,"[4]; db/db mice, FIG. 2",prevents β-cell degeneration; also recorded: prevention of pancreatic β-cell degeneration
same,acute blood glucose response,[5]; 15 mg/kg dose group,acute dose response
same,acute blood glucose response,[5]; 50 mg/kg dose group,acute dose response
same,effect on animal weight gain,[5]; [10],dose dependent effect
same,effect on blood glucose levels,[5]; [10],dose dependent effect
same,blood glucose levels following acute administration,[5]; measured two hours after first dose,reduce blood glucose levels
same,blood glucose levels after oral glucose administration,[6],reduced blood glucose levels at both time points
same,food intake,[7]; Western / high fat diet fed mice,not affected; also recorded: independent of an effect on food intake; also recorded: normal food intake
same,"brown, axial, inguinal, renal and epipdydimal fat pad increases",[7]; [11],significantly reduced
same,mesenteric fat pad levels,[7]; [11],not
same,weight gain,"[7]; Western diet, highest dose tested (30 mg/kg/day), absolute weight and weight change from day 0",significantly reduced
same,defecation,"[7]; chronic administration, high fat diet",defecated normally
same,hyperactivity normally associated with the amphetamine class of weight-loss drugs,"[7]; mouse, in vivo",did not display the hyperactivity
same,"animals fed a western diet and treated, compared with normal diet (weight gain, food intake, fat pad development, leptin)",[7]; summary of Examples 2 and 3,do not look different from those fed a normal diet
same,weight change / weight-gain response,"[7]; western (high fat) diet fed animals, chronic administration, dose not stated",significant alteration; also recorded: significantly inhibited
same,fat pad development,[7]; western diet fed animals,reduction in fat pad development
O=c1ncc(Oc2cccc(Cl)c2)c[nH]1 [Compound 105],baseline blood glucose levels,[1]; data not shown,significantly depressed
same,blood glucose levels,"[1]; oral glucose tolerance test, overall statement",dramatic reductions
same,blood glucose levels at all time points after administration,[1]; single dose 2 mg/kg,significantly (P<0.05) reduced
same,blood glucose levels at all time points after administration,[1]; single dose 10 mg/kg,significantly (P<0.05) reduced
